Results: patent US11006626B2, “Compounds for protection of cells” (Sulfateq B.V., priority 2012, dated 2021)

What was measured:
[1] = test system: Human Embryo Kidney (HEK) 293 cells; test: Hypothermia/rewarming injury of HEK cells, trypan blue viability count; assay type: cell-based; settings: for viability at 0.01 µM / viability at 0.1 µM / viability at 1 µM / viability at 10 µM / viability at 100 µM / viability at 1000 µM: Homo sapiens, HEK293, 24 h, read-out: % cells that survived; for viability at 0.01 µM / viability at 0.1 µM / viability at 1 µM / viability at 10 µM / viability at 100 µM / viability at 1000 µM / % cells that survived: 24 h at 4° C., 24 h rewarming; for % cells that survived, Mean: mean over the tested concentrations
[2] = test system: blood platelets; test: Cold storage of PRP blood platelets, aggregation of thrombocytes after storage; assay type: cell-based; parameters: key: − means that most of the thrombocytes were aggregated; a + indicates that a few cells were still viable but some cells aggregated; a ++ indicates that almost all cells were viable; settings: 30 mM; PRP platelets stored at 4° C.; 264 hours
Procedure: PRP platelets were harvested and 2.1 ml was suspended in Poly Propylene tubes of 5 ml, closed with a stop.
Several compounds according to the invention were added to the blood platelets directly after preparing the PRP plasma and incubated during 10 minutes at 37° C. or 30 minutes at room temperature. The blood platelets with the compound were then stored at 4° C.
A control was stored under shaking conditions at room temperature. Another control was stored at 4° C. without the addition of a compound.
A sample was taken out of each tube after 264 hours after addition of the compound and tested as follows: • The color and coagulation properties were visually analysed. • The thrombocyte cells that survived were counted and it was evaluated whether the thrombocytes were aggregated. • It was evaluated if the thrombocytes still were able to function after stimulation by the addition of ADP or under influence of collagen in a 96 well plate. • The adhesion was evaluated, meaning the ability of the platelets to bind collagen in a 6 well plate preincubated with collagen. • Via an ELISA assay, it was evaluated whether thromboxane was secreted from the platelets. Thromboxane facilitates aggregation and is produced by activated blood platelets.
Table 3 provides an overview of the results of the addition of the compounds to the blood platelets and evaluates the aggregation of the thrombocytes after addition of the compound according to the invention and cooling until 4° C.

Structure (SMILES)	viability at 0.01 µM ([1]; 10 nM)	viability at 0.1 µM ([1]; 100 nM)	viability at 1 µM ([1]; 1 μM)	viability at 10 µM ([1]; 10 μM)	viability at 100 µM ([1]; 100 μM)	viability at 1000 µM ([1]; 1 mM)	% cells that survived, Mean [1]	Aggregation of blood platelets after storage [2]	% cells that survived ([1]; 10 nM)	% cells that survived ([1]; 10 μM)	% cells that survived ([1]; 100 nM)	% cells that survived ([1]; 1 μM)	% cells that survived ([1]; 100 μM)	% cells that survived ([1]; 1 mM)
Cc1c2c(c(C(C)C)c(O)c1C(C)C)CCC(C)(C(=O)N1CCN(CC(=O)O)CC1)O2 (stereo not shown) [SUL - 139, 2-(4-(6-hydroxy-5,7-diisopropyl-2,8-dimethylchroman-2-carbonyl)piperazin-1-yl)acetic acid]	13.3%	4.57%	4.26%	90%	89.7%	80.3%	47%	+	–	–	–	–	–	–
Cc1c(C)c2c(c(C)c1O)CCC(C)(C(=O)N1CCNCC1)O2 (stereo not shown) [SUL - 121, (6-hydroxy-2,5,7,8-tetramethylchroman-2-yl)(piperazin-1-yl)methanone]	87.3%	89%	94.8%	88.9%	92.7%	0%	75%	+	–	–	–	–	–	–
Cc1c(C)c2c(c(C)c1O)CCC(C)(C(=O)N1CCC[C@H]1C(=O)O)O2 (single isomer, unassigned) [SUL - 144]	–	18.3%	21.6%	–	91%	92.6%	42%	+	4.08%	25.93%	–	–	–	–
Cc1c(C)c2c(c(C)c1O)CC[C@@](C)(C(=O)N1CCN(CC(=O)O)CC1)O2 [SUL - 141, (S)-2-(4-(6-hydroxy-2,5,7,8-tetramethylchroman-2-carbonyl)piperazin-1-yl)acetic acid]	58.5%	96.2%	0.75%	99.4%	96.8%	99.1%	75%	+	–	–	–	–	–	–
Cc1c(C)c2c(c(C)c1O)CCC(C)(C(=O)N1CCC[C@H]1C(=O)O)O2 (single isomer, unassigned) [SUL - 145]	–	–	–	–	–	–	40%	+	12.99%	7.84%	28.68%	21.43%	78.61%	88.08%
Cc1c(C)c2c(c(C)c1O)CCC(C)(C(=O)N1CCN(CCO)CC1)O2 (stereo not shown) [SUL - 132, (6-hydroxy-2,5,7,8-tetramethylchroman-2-yl)(4-(2-hydroxyethyl)piperazin-1-yl)methanone]	–	–	–	–	–	–	89%	+	93.96%	91.11%	91.41%	88.30%	89.73%	80.51%
Cc1c(C)c2c(c(C)c1O)CC[C@](C)(C(=O)NO)O2 [SUL - 125, (R)-N,6-dihydroxy-2,5,7,8-tetramethylchroman-2-carboxamide]	8.09%	0%	97.3%	96.7%	88.4%	22.5%	52%	+	–	–	–	–	–	–
CCCCNCC1(C)CCc2c(C)c(O)c(C)c(C)c2O1 (stereo not shown) [SUL - 117, 2-((butylamino)methyl)-2,5,7,8-tetramethylchroman-6-ol]	0.72%	89.3%	93.6%	84.8%	90.1%	0%	60%	+	–	–	–	–	–	–
Cc1c(C)c2c(c(C)c1O)CC[C@@](C)(C(=O)NO)O2 [SUL - 126, (S)-N,6-dihydroxy-2,5,7,8-tetramethylchroman-2-carboxamide]	0%	0%	68.1%	92.7%	98.6%	80.2%	57%	+	–	–	–	–	–	–
Cc1c2c(c(C(C)C)c(O)c1C(C)C)CCC(C)(C(=O)O)O2 (stereo not shown) [SUL - 118, 6-hydroxy-5,7-diisopropyl-2,8-dimethylchroman-2-carboxylic acid]	13.7%	45.7%	36.2%	52.9%	88.5%	92.5%	55%	+	–	–	–	–	–	–
Cc1c(C)c2c(c(C)c1O)CCC(C)(C(=O)N1CCN(CCO)CC1)O2 (stereo not shown) [SUL - 138, (6-hydroxy-2,5,7,8-tetramethylchroman-2-yl)(4-(2-hydroxyethyl)piperazin-1-yl)methanone]	–	–	–	–	–	–	89%	+	92.84%	91.71%	91.74%	77.01%	93.30%	86.94%
Cc1c(C)c2c(c(C)c1O)CCC(C)(C(=O)N1CCN(CCOCCO)CC1)O2 (stereo not shown) [SUL - 122, (6-hydroxy-2,5,7,8-tetramethylchroman-2-yl)(4-(2-(2-hydroxyethoxy)ethyl)piperazin-1-yl)methanone]	5.15%	22.5%	85.6%	85.2%	88.5%	55.6%	57%	–	–	–	–	–	–	–
Cc1c(C)c2c(c(C)c1O)CCC(C)(CN1CCC[C@H]1CO)O2 (stereo partly drawn) [SUL - 134, 2-(((S)-2-(hydroxymethyl)pyrrolidin-1-yl)methyl)-2,5,7,8-tetramethylchroman-6-ol]	–	–	–	–	–	–	79%	–	87.43%	86.58%	86.34%	87.74%	88.82%	36.51%
Cc1c(C)c2c(c(C)c1O)CCC(C)(C(=O)NC(C)C)O2 (stereo not shown) [SUL - 92, 6-hydroxy-N-isopropyl-2,5,7,8-tetramethylchroman-2-carboxamide]	–	3.13%	64.6%	87.1%	86.5%	1.55%	49%	–	–	–	–	–	–	–
Cc1c(C)c2c(c(C)c1O)CCC(C)(C)O2 [SUL - 83, 2,2,5,7,8-pentamethylchroman-6-ol]	–	0%	79.4%	70.1%	55.7%	1.11%	41%	–	–	–	–	–	–	–
Cc1c(C)c2c(c(C)c1O)CCC(C)(C(=O)Nc1ccc(F)cc1)O2 (stereo not shown) [SUL - 106, N-(4-fluorophenyl)-6-hydroxy-2,5,7,8-tetramethylchroman-2-carboxamide]	77.8%	76.9%	63.2%	68.8%	55.6%	0%	57%	–	–	–	–	–	–	–
Cc1c(C)c2c(c(C)c1O)CCC(C)(C(=O)NCCCN1CCCCC1)O2 (stereo not shown) [SUL - 102, 6-hydroxy-2,5,7,8-tetramethyl-N-(3-(piperidin-1-yl)propyl)chroman-2-carboxamide]	73.2%	95.8%	93.7%	82%	73.4%	93.3%	85%	–	–	–	–	–	–	–
Cc1c(C)c2c(c(C)c1O)CCC(C)(CN1CCC[C@H]1CO)O2 (stereo partly drawn) [SUL - 135, 2-(((S)-2-(hydroxymethyl)pyrrolidin-1-yl)methyl)-2,5,7,8-tetramethylchroman-6-ol]	–	–	–	–	–	–	77%	–	71.94%	93.85%	83.90%	93.82%	83.46%	33.06%
Cc1c2c(c(C(C)C)c(O)c1C(C)C)CCC(C)(C(=O)NO)O2 (stereo not shown) [SUL - 131, N,6-dihydroxy-5,7-diisopropyl-2,8-dimethylchroman-2-carboxamide]	2.99%	1.59%	22.5%	91.1%	75.4%	0%	32%	–	–	–	–	–	–	–
